Measurements taken from patent US10590106B2, “Certain chemical entities, compositions, and methods” (NeuPharma, Inc., priority 2012, dated 2020).

How the values were obtained:
BRAF V600E = BRAF V600E (Homo sapiens (Human), UniProt P15056, V600E); assay: Inhibitory activity against kinase BRAF V600E, Z'-LYTE method (Invitrogen); type: biochemical; details: for inhibition at 1 µM: 1 μM compound, read-out: Inhibition (% inhibition at 1 μM) against BRAF V600E
Experimental: Inhibitory activities Inhibitory activities of compounds against BRAF, and BRAF V600E were measured by Invitrogen using Z′-LYTE® Method as briefly described in the following. 4× Test compounds are dissolved in 1% DMSO. […] ATP solutions are diluted to a 4×ATP working concentration in Kinase Buffer (50 mM HEPES pH 7.5, 0.01% BRIJ-35, 10 mM MgCl2, 1 mM EGTA). Reaction started by 30-second shaking of mixture consisting of 2.5 μL 4× test compound, […] and 2.5 μL 4×ATP Solution on Bar-coded Corning, low volume NBS, black 384-well plate (Corning Cat. #3676). Then the mixture was incubated for 60-minute at room temperature for the kinase reaction, followed by addition of 5 μL of a 1:1024 dilution of development reagent A and 30-second plate shake. The mixture was then incubated for another 60-minute at room temperature for development reaction. Fluorescence was read by plate reader. IC50 was calculated by plotting the concentration of compound vs the percentage of inhibition in treated wells using GraphPad Prism 5.
Table 2 and 3 show % inhibition at 1 μM of several compounds of the invention against BRAF and BRAF V600E, respectively, using Z′-LYTE® method.
The scale utilized in Table 4 is as follows: +++ less than 100 nM; and ++ greater than 100 nM.

KDR (VEGFR2) = KDR (VEGFR2) (Homo sapiens (Human), UniProt P35968); assay: Inhibitory activity against kinase KDR, Z'-LYTE method (Invitrogen); type: biochemical; details: for inhibition at 1 µM: 1 μM compound, read-out: Inhibition (% inhibition at 1 μM) against KDR
KDR (VEGFR2), sequence (P35968 20-1356): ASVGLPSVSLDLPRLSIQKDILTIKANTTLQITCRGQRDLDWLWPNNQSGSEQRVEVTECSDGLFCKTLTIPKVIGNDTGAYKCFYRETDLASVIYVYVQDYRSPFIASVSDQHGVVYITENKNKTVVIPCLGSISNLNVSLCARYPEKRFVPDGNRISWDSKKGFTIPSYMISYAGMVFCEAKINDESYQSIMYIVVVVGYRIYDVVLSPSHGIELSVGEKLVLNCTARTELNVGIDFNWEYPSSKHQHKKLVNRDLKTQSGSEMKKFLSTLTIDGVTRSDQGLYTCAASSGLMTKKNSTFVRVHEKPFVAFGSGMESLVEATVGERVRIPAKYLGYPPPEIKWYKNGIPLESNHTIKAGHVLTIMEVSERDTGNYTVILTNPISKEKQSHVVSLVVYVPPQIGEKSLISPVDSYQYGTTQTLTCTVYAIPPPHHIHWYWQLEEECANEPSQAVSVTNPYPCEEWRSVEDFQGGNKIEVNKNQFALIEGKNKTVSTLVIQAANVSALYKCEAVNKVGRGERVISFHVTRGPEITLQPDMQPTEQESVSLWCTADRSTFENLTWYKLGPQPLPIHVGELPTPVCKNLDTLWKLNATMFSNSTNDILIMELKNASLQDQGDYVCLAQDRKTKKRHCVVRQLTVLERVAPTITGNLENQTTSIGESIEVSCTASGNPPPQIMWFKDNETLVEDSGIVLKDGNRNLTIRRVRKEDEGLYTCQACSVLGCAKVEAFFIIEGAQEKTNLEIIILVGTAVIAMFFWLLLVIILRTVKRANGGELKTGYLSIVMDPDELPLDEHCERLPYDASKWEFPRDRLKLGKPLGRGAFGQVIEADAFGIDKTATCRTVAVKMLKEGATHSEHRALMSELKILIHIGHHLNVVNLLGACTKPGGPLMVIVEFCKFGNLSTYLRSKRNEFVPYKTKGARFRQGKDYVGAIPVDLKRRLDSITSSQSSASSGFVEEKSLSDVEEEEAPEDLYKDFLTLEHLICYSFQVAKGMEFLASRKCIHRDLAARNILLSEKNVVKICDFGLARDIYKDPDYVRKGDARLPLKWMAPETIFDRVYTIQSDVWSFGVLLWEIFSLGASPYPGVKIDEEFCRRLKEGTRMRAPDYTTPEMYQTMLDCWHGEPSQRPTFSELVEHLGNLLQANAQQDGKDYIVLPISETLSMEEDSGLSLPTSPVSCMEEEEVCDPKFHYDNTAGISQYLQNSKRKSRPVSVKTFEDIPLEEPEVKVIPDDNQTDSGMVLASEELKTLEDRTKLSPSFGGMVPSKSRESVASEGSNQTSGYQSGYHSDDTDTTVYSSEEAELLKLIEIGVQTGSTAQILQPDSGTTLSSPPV
Experimental: Inhibitory activities of compounds against KDR (VEGFR2) were also measured by Invitrogen using Z′-LYTE® Method as described above with the following modification. The 2× KDR (VEGFR2)/Tyr 01 mixture is prepared in 50 mM HEPES pH 7.5, 0.01% BRIJ-35, 10 mM MgCl2, 1 mM EGTA. The final 10 μL Kinase Reaction consists of 0.5-11.7 ng KDR (VEGFR2) and 2 μM Tyr 01 in 50 mM HEPES pH 7.5, 0.01% BRIJ-35, 10 mM MgCl2, 1 mM EGTA. After the 1 hour Kinase Reaction incubation, 5 μL of a 1:256 dilution of Development Reagent B is added.
The scale utilized in Table 5 is as follows: +++ less than 100 nM; and ++ greater than 100 nM

A375 cells = assay: Inhibition of cancer cell growth, MTT or MTS assay, A375; type: cell-based; details: Homo sapiens, A-375; 72 h incubation
Experimental: (§1) Inhibition of cell growth by compounds was measured using MTT or MTS assay. Tumor cell lines were purchased from ATCC (American Type Culture Collection, Manassas, Va.). All cell lines were maintained in RPMI 1640 (Hyclone) supplemented with 10% fetal bovine serum (FBS, Hyclone), glutamine (2 mM, Hyclone), and antibiotics (penicillin 100 U/mL and streptomycin 50 μg/mL) at 37° C. in a humidified atmosphere of 5% CO2 in air. Taxol (as a positive control, Sigma) and compounds were dissolved in DMSO (Sigma), and the final concentration of DMSO in the medium was 1%. Tumor cells were plated in 96-well plates at densities of about 2000 (A375) or 4000 (A549 and Colo205) cells/well of a 96-well plate and allowed to adhere/grow for 24 h. They were then treated with various concentrations of drug and incubated for 72 h. For MTT method, medium was then removed by inverting and tapping the plates. 100 μL of MTT (0.5 mg/ml) was added to each well followed by an incubated at 37° C. for 4 h. MTT was then removed and 200 μL of DMSO was added to each well, and the ODs at 570 nm were measured after a 5 second shaking cycle in a 96-well spectrophotometer. For MTS method, 20 μL MTS (CellTiter 96 Aqueous One Solution, Promega) was added to each well followed by an incubated at 37° C. for 2-4 h, solutions were then directly put in a 96-well spectrophotometer, and the ODs at 490 nm were measured.
(§2) All concentrations of compounds were tested in triplicate and controls were averaged over 4 wells. IC50 was calculated by plotting the concentration of compound vs the percentage of inhibition in treated wells using GraphPad Prism 5. […] The scale utilized in Tables […] is as follows: +++ less than 1000 nM; ++ between 1000 nM and 5000 nM; and + greater than 5000 nM. The scale utilized in Table 8 is as follows: +++ less than 2000 nM; ++ between 2000 nM and 5000 nM; and + greater than 5000 nM.

A549 cells = assay: Inhibition of cancer cell growth, MTT or MTS assay, A549; type: cell-based; details: Homo sapiens, 72 h incubation
Experimental: as §1, §2

BRAF V600E, sequence (P15056 whole entry V600E): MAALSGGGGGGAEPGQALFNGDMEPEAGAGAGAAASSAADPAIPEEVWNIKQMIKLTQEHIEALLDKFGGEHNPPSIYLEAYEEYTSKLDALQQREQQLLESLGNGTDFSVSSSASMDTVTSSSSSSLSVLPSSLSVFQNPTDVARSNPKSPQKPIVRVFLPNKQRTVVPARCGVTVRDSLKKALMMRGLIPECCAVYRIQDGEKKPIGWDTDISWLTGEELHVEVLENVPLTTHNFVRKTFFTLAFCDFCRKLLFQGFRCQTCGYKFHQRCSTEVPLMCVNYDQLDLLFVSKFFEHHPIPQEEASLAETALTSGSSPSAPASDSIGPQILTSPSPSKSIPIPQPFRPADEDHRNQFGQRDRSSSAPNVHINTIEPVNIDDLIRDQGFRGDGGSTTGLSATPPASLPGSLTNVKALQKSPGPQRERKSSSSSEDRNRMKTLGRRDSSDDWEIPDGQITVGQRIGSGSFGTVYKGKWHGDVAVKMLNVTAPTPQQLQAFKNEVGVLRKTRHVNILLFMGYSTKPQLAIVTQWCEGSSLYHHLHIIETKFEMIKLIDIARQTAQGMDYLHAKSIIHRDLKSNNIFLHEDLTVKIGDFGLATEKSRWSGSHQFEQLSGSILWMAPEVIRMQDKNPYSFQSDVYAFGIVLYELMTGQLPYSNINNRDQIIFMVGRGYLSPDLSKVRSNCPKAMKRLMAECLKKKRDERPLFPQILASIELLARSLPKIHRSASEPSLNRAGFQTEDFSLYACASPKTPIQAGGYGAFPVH

Structure (SMILES)	inhibition at 1 µM (BRAF V600E)	inhibition at 1 µM (KDR (VEGFR2))	IC50 (A375 cells)	IC50 (A549 cells)	IC50 (BRAF V600E)	IC50 (KDR (VEGFR2))
O=C(Nc1ccc(F)c(Oc2ccc3ncc(N4CCOCC4)nc3c2)c1)c1cccc(F)c1 [Compound C025, 3-fluoro-N-(4-fluoro-3-((3-morpholinoquinoxalin-6-yl)oxy)phenyl)benzamide]	70 to 89%	70 to 89%	> 5 µM	> 5 µM	–	–
O=C(Nc1ccc(C(F)(F)F)cc1)Nc1ccc(Oc2ccc3nccnc3c2)cc1F [Compound C097, 1-(2-fluoro-4-(quinoxalin-6-yloxy)phenyl)-3-(4-(trifluoromethyl)phenyl)urea]	70 to 89%	–	> 5 µM	> 5 µM	–	–
O=C(Nc1cccc(Oc2ccc3ncc(N4CCOCC4)nc3c2)c1)Nc1cccc(C(F)(F)F)c1 [Compound C046, 1-(3-((3-morpholinoquinoxalin-6-yl)oxy)phenyl)-3-(3-(trifluoromethyl)phenyl)urea]	> 89%	70 to 89%	1 to 5 µM	2 to 5 µM	–	–
O=C(Nc1cccc(F)c1)Nc1cc(F)cc(Oc2ccc3nccnc3c2)c1 [Compound C020, 1-(3-fluoro-5-(quinoxalin-6-yloxy)phenyl)-3-(3-fluorophenyl)urea]	70 to 89%	–	> 5 µM	2 to 5 µM	–	–
O=C(Nc1ccc(Cl)c(C(F)(F)F)c1)Nc1ccc(Oc2ccc3nccnc3c2)cc1F [Compound C095, 1-(4-chloro-3-(trifluoromethyl)phenyl)-3-(2-fluoro-4-(quinoxalin-6-yloxy)phenyl)urea]	< 70%	70 to 89%	> 5 µM	2 to 5 µM	–	–
O=C(Nc1cc(F)cc(Oc2ccc3nccnc3c2)c1)Nc1ccc(Cl)c(C(F)(F)F)c1 [Compound C022, 1-(4-chloro-3-(trifluoromethyl)phenyl)-3-(3-fluoro-5-(quinoxalin-6-yloxy)phenyl)urea]	70 to 89%	70 to 89%	< 1 µM	< 2 µM	–	–
O=C(Nc1ccc(Oc2ccc3ncc(N4CCOCC4)nc3c2)cc1)Nc1ccc(F)c(C(F)(F)F)c1 [Compound C086, 1-(4-fluoro-3-(trifluoromethyl)phenyl)-3-(4-((3-morpholinoquinoxalin-6-yl)oxy)phenyl)urea]	70 to 89%	> 89%	1 to 5 µM	2 to 5 µM	–	–
O=C(Nc1cccc(C(F)(F)F)c1)Nc1ccc(F)c(Oc2ccc3ncc(N4CCOCC4)nc3c2)c1 [Compound C035, 1-(4-fluoro-3-((3-morpholinoquinoxalin-6-yl)oxy)phenyl)-3-(3-(trifluoromethyl)phenyl)urea]	70 to 89%	70 to 89%	< 1 µM	2 to 5 µM	–	–
O=C(Nc1ccc(F)c(Oc2ccc3nccnc3c2)c1)Nc1ccc(Cl)c(C(F)(F)F)c1 [Compound C011, 1-(4-chloro-3-(trifluoromethyl)phenyl)-3-(4-fluoro-3-(quinoxalin-6-yloxy)phenyl)urea]	< 70%	70 to 89%	< 1 µM	< 2 µM	–	–
O=C(Nc1ccc(Oc2ccc3ncc(N4CCOCC4)nc3c2)cc1)Nc1ccc(Cl)c(C(F)(F)F)c1 [Compound C084, 1-(4-chloro-3-(trifluoromethyl)phenyl)-3-(4-((3-morpholinoquinoxalin-6-yl)oxy)phenyl)urea]	70 to 89%	> 89%	1 to 5 µM	2 to 5 µM	–	–
O=C(Nc1cc(F)cc(Oc2ccc3nccnc3c2)c1)c1cccc(F)c1 [Compound C014, 3-fluoro-N-(3-fluoro-5-(quinoxalin-6-yloxy)phenyl)benzamide]	70 to 89%	–	> 5 µM	> 5 µM	–	–
O=C(Nc1cc(F)cc(Oc2ccc3nccnc3c2)c1)c1ccc(Cl)c(C(F)(F)F)c1 [Compound C016, 4-chloro-N-(3-fluoro-5-(quinoxalin-6-yloxy)phenyl)-3-(trifluoromethyl)benzamide]	> 89%	–	> 5 µM	> 5 µM	–	–
O=C(Nc1ccc(Oc2ccc3nccnc3c2)cc1)Nc1ccc(Cl)c(C(F)(F)F)c1 [Compound C076, 1-(4-chloro-3-(trifluoromethyl)phenyl)-3-(4-(quinoxalin-6-yloxy)phenyl)urea]	70 to 89%	70 to 89%	1 to 5 µM	> 5 µM	–	–
O=C(Nc1ccc(Oc2ccc3nccnc3c2)cc1)c1ccc(Cl)c(C(F)(F)F)c1 [Compound C079, 4-chloro-N-(4-(quinoxalin-6-yloxy)phenyl)-3-(trifluoromethyl)benzamide]	< 70%	–	> 5 µM	> 5 µM	–	–
CCCS(=O)(=O)Nc1ccc(Oc2ccc3nccnc3c2)cc1 [Compound C080, N-(4-(quinoxalin-6-yloxy)phenyl)propane-1-sulfonamide]	–	–	> 5 µM	> 5 µM	–	–
O=C(Nc1cc(F)cc(Oc2ccc3ncc(N4CCOCC4)nc3c2)c1)Nc1ccc(Cl)c(C(F)(F)F)c1 [Compound C033, 1-(4-chloro-3-(trifluoromethyl)phenyl)-3-(3-fluoro-5-((3-morpholinoquinoxalin-6-yl)oxy)phenyl)urea]	70 to 89%	70 to 89%	< 1 µM	< 2 µM	–	–
O=C(Nc1cc(F)cc(Oc2ccc3ncc(N4CCOCC4)nc3c2)c1)Nc1cccc(C(F)(F)F)c1 [Compound C032, 1-(3-fluoro-5-((3-morpholinoquinoxalin-6-yl)oxy)phenyl)-3-(3-(trifluoromethyl)phenyl)urea]	70 to 89%	70 to 89%	1 to 5 µM	2 to 5 µM	–	–
O=C(Nc1ccc(F)c(Oc2ccc3ncc(N4CCOCC4)nc3c2)c1)Nc1ccc(Cl)c(C(F)(F)F)c1 [Compound C009, 1-(4-chloro-3-(trifluoromethyl)phenyl)-3-(4-fluoro-3-((3-morpholinoquinoxalin-6-yl)oxy)phenyl)urea]	< 70%	> 89%	< 1 µM	< 2 µM	> 0.1 µM	> 0.1 µM
O=C(Nc1ccc(F)c(Oc2ccc3nccnc3c2)c1)c1cccc(C(F)(F)F)c1 [Compound C018, N-(4-fluoro-3-(quinoxalin-6-yloxy)phenyl)-3-(trifluoromethyl)benzamide]	> 89%	70 to 89%	1 to 5 µM	> 5 µM	–	–
O=C(Nc1ccc(Oc2ccc3nccnc3c2)cc1)c1cccc(F)c1 [Compound C077, 3-fluoro-N-(4-(quinoxalin-6-yloxy)phenyl)benzamide]	< 70%	–	1 to 5 µM	> 5 µM	–	–
CCCS(=O)(=O)Nc1ccc(F)c(Oc2ccc3nccnc3c2)c1 [Compound C013, N-(4-fluoro-3-(quinoxalin-6-yloxy)phenyl)propane-1-sulfonamide]	–	–	> 5 µM	> 5 µM	–	–
